Test results published in the kinase profiling compilation of Christmann-Franck et al. (2016).
Blank lines part the entries; values can stand above or below the compound they belong to.

Experiments:
Assay in all cases: radiometric filter-binding kinase assay, Kinaseprofiler
MTOR FKBP1A (human) = MTOR FKBP1A (human) (UniProt P42345+P62942); conditions: compound 10.0 µM; ATP 45 µM
CHEK1 (human) = CHEK1 (human) (UniProt O14757); conditions: compound 10.0 µM; ATP 90 µM
NTRK2 (human) = NTRK2 (human) (UniProt Q16620); conditions: ATP 90 µM
EPHA8 (human) = EPHA8 (human) (UniProt P29322); conditions: compound 1.0 µM; ATP 200 µM
NLK (human) = NLK (human) (UniProt Q9UBE8); conditions: compound 1.0 µM; ATP 200 µM
NUAK1 (human) = NUAK1 (human) (UniProt O60285); conditions: ATP 45 µM
MAPKAPK3 (human) = MAPKAPK3 (human) (UniProt Q16644); conditions: compound 10.0 µM; ATP 90 µM
[1] = tested on: BRSK2 (human), Q8IWQ3 [S251I]; conditions: ATP 70 µM
RPS6KA4 KD1 KD2 (human) = RPS6KA4 KD1 KD2 (human) (UniProt O75676); conditions: ATP 45 µM
SRPK1 (human) = SRPK1 (human) (UniProt Q96SB4); conditions: compound 10.0 µM; ATP 10 µM
STK24 (human) = STK24 (human) (UniProt Q9Y6E0); conditions: compound 1.0 µM; ATP 15 µM
IRAK1 (human) = IRAK1 (human) (UniProt P51617); conditions: compound 10.0 µM; ATP 45 µM
MAPK3 (human) = MAPK3 (human) (UniProt P27361); conditions: compound 1.0 µM; ATP 70 µM
PRKACA (human) = PRKACA (human) (UniProt P17612); conditions: compound 1.0 µM; ATP 10 µM
EPHB1 (human) = EPHB1 (human) (UniProt P54762); conditions: compound 10.0 µM; ATP 200 µM
CSNK1D (rat) = conditions: compound 10.0 µM; accession and sequence are those of the human protein
STK4 (human) = STK4 (human) (UniProt Q13043); conditions: compound 1.0 µM; ATP 90 µM
[2] = tested on: IRAK4 (human), Q9NWZ3 [A81V]; conditions: ATP 200 µM
CSNK1G1 (human) = CSNK1G1 (human) (UniProt Q9HCP0); conditions: compound 10.0 µM; ATP 15 µM
PAK7 (human) = PAK7 (human) (UniProt Q9P286); conditions: compound 10.0 µM; ATP 15 µM
HIPK3 (human) = HIPK3 (human) (UniProt Q9H422); conditions: ATP 15 µM
INSR (human) = INSR (human) (UniProt P06213); conditions: compound 1.0 µM; ATP 200 µM
SRPK3 (human) = SRPK3 (human) (UniProt Q9UPE1); conditions: compound 10.0 µM; ATP 15 µM
PRKG1 (human) = PRKG1 (human) (UniProt Q13976); conditions: compound 1.0 µM; ATP 90 µM
FYN (human) = FYN (human) (UniProt P06241); conditions: compound 1.0 µM; ATP 70 µM
SRC (human) = SRC (human) (UniProt P12931); conditions: compound 10.0 µM; ATP 200 µM
FLT3 (human) = FLT3 (human) (UniProt P36888); conditions: ATP 200 µM
[3] = molecular target: CSNK2A1 CSNK2B CSNK2A2 (human) (UniProt P19784+P68400+P67870); conditions: compound 10.0 µM; ATP 15 µM
FER (human) = FER (human) (UniProt P16591); conditions: compound 10.0 µM; ATP 70 µM
PTK2B (human) = PTK2B (human) (UniProt Q14289); conditions: compound 10.0 µM; ATP 90 µM
WNK2 (human) = WNK2 (human) (UniProt Q9Y3S1); conditions: compound 10.0 µM; ATP 200 µM
MAP2K1 (human) = MAP2K1 (human) (UniProt Q02750); conditions: compound 1.0 µM; ATP 10 µM
PLK3 (human) = PLK3 (human) (UniProt Q9H4B4); conditions: compound 10.0 µM; ATP 70 µM
PASK (human) = PASK (human) (UniProt Q96RG2); conditions: compound 10.0 µM; ATP 15 µM
TXK (human) = TXK (human) (UniProt P42681); conditions: compound 1.0 µM; ATP 200 µM
STK17A (human) = STK17A (human) (UniProt Q9UEE5); conditions: compound 10.0 µM; ATP 10 µM
TLK2 (human) = TLK2 (human) (UniProt Q86UE8); conditions: ATP 10 µM
ULK3 (human) = ULK3 (human) (UniProt Q6PHR2); conditions: compound 10.0 µM; ATP 10 µM
MELK (human) = MELK (human) (UniProt Q14680); conditions: compound 1.0 µM; ATP 45 µM
FGR (human) = FGR (human) (UniProt P09769); conditions: compound 1.0 µM; ATP 45 µM
PIM1 (human) = PIM1 (human) (UniProt P11309); conditions: compound 10.0 µM; ATP 90 µM
CDC42BPA (human) = CDC42BPA (human) (UniProt Q5VT25); conditions: compound 10.0 µM; ATP 45 µM
RPS6KA5 KD1 KD2 (human) = RPS6KA5 KD1 KD2 (human) (UniProt O75582); conditions: compound 1.0 µM; ATP 90 µM
[4] = molecular target: JAK2 JH1 catalytic (human) (UniProt O60674); conditions: compound 1.0 µM; ATP 45 µM
KDR (human) = KDR (human) (UniProt P35968); conditions: compound 10.0 µM; ATP 90 µM
AURKB (human) = AURKB (human) (UniProt Q96GD4); conditions: compound 10.0 µM; ATP 10 µM
RPS6KA3 KD1 KD2 (human) = RPS6KA3 KD1 KD2 (human) (UniProt P51812); conditions: compound 1.0 µM; ATP 10 µM
EPHA1 (human) = EPHA1 (human) (UniProt P21709); conditions: compound 1.0 µM; ATP 45 µM
MARK2 (human) = MARK2 (human) (UniProt Q7KZI7); conditions: compound 1.0 µM; ATP 15 µM
PAK4 (human) = PAK4 (human) (UniProt O96013); conditions: compound 10.0 µM; ATP 10 µM
CAMK2G (human) = CAMK2G (human) (UniProt Q13555); conditions: compound 10.0 µM; ATP 10 µM
TAOK1 (human) = TAOK1 (human) (UniProt Q7L7X3); conditions: compound 1.0 µM; ATP 10 µM
NTRK1 (human) = NTRK1 (human) (UniProt P04629); conditions: compound 1.0 µM; ATP 120 µM
TNK2 (human) = TNK2 (human) (UniProt Q07912); conditions: compound 1.0 µM; ATP 70 µM
EPHA3 (human) = EPHA3 (human) (UniProt P29320); conditions: compound 1.0 µM; ATP 120 µM
[5] = tested on: AXL (human), P30530 [Q764R]; conditions: ATP 90 µM
[6] = tested on: RPS6KB1 (human), P23443 [T412E]; conditions: ATP 15 µM
[7] = tested on: SGK1 (human), O00141 [S422D]; conditions: ATP 90 µM
Sequence of SGK1 (human), O00141 [S422D] (O00141 whole entry S422D, looked up): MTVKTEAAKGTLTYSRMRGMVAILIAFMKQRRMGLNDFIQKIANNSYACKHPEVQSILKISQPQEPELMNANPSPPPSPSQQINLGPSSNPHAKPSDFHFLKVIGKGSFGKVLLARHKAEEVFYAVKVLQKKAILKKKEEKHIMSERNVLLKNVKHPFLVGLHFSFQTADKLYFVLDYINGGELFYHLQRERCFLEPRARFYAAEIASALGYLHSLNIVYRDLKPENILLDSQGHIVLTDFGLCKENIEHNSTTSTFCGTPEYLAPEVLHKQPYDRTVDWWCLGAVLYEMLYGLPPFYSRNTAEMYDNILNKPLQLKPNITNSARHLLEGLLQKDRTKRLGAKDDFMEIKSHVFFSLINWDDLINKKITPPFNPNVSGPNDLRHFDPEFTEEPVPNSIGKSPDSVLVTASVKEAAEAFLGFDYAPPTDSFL

Sequence of BRSK2 (human), Q8IWQ3 [S251I] (Q8IWQ3 whole entry, looked up, stated change not applied): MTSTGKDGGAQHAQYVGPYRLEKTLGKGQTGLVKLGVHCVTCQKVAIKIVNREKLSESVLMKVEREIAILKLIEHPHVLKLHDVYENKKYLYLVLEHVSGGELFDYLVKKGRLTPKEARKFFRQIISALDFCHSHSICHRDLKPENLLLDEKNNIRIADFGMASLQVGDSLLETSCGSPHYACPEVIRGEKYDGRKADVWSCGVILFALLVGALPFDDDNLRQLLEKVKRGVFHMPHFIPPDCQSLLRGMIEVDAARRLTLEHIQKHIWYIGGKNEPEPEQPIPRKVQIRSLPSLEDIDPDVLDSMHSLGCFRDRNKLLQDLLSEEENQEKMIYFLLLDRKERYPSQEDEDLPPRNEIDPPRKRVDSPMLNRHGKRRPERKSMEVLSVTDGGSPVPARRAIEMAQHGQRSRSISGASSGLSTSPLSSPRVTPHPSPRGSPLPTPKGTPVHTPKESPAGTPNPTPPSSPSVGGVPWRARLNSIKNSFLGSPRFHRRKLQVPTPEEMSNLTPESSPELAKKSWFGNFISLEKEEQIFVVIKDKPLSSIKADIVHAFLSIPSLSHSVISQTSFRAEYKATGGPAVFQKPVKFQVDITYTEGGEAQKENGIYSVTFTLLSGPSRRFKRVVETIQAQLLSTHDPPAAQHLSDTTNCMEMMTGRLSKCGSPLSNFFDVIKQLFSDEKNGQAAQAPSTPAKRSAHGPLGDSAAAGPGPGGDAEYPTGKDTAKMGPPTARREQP
Sequence of AXL (human), P30530 [Q764R] (P30530 whole entry Q764R, looked up): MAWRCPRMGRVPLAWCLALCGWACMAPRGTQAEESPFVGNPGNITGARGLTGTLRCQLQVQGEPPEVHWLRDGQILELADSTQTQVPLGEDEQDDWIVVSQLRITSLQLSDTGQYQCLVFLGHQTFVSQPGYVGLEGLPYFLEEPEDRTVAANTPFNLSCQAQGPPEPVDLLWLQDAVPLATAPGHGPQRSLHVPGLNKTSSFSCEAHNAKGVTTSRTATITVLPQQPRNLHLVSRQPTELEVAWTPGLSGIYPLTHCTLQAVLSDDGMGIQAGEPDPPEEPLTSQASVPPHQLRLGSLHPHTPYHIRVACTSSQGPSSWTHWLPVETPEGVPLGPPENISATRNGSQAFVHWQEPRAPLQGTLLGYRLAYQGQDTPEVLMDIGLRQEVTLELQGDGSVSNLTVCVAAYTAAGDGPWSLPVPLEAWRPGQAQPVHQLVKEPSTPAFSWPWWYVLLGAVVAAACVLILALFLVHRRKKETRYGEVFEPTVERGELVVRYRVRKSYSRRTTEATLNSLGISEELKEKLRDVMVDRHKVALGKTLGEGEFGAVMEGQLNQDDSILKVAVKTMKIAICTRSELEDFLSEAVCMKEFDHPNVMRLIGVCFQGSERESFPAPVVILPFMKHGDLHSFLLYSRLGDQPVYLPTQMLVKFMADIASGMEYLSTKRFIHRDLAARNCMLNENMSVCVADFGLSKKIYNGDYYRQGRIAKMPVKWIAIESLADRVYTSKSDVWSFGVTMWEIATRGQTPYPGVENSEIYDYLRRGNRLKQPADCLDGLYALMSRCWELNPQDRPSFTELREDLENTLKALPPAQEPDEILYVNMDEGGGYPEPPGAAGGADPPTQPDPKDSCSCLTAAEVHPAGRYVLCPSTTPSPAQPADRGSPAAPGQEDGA
Sequence of IRAK4 (human), Q9NWZ3 [A81V] (Q9NWZ3 whole entry, looked up, stated change not applied): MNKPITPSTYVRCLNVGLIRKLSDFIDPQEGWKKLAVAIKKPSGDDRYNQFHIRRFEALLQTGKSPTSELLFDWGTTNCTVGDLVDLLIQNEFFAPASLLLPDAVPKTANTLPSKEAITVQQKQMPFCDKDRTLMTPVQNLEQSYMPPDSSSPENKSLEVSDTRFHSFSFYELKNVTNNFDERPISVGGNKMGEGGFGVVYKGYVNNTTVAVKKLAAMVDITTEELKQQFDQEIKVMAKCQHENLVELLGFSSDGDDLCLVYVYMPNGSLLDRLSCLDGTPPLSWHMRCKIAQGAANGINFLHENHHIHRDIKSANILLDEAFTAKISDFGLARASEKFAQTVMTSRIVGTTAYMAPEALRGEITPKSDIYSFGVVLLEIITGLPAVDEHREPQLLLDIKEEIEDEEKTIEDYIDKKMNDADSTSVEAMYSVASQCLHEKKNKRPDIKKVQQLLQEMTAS
Sequence of NUAK1 (human) (O60285 whole entry, looked up): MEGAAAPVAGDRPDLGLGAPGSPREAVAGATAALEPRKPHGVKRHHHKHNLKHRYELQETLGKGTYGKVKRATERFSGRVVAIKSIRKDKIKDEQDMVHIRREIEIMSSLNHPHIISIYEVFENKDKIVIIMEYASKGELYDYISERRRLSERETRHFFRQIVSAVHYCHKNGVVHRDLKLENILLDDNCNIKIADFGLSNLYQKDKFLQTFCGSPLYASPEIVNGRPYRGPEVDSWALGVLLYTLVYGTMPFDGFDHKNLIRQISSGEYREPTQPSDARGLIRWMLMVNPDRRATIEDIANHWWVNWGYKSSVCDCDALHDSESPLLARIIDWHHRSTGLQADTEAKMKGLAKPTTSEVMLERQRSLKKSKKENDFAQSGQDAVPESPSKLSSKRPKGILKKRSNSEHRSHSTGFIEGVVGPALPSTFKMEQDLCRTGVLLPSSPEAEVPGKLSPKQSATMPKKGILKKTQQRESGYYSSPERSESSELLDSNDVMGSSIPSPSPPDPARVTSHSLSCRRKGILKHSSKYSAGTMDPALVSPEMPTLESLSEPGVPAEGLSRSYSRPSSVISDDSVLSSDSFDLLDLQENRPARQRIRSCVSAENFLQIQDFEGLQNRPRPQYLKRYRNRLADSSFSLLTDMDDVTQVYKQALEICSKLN
Sequence of FLT3 (human) (P36888 whole entry, looked up): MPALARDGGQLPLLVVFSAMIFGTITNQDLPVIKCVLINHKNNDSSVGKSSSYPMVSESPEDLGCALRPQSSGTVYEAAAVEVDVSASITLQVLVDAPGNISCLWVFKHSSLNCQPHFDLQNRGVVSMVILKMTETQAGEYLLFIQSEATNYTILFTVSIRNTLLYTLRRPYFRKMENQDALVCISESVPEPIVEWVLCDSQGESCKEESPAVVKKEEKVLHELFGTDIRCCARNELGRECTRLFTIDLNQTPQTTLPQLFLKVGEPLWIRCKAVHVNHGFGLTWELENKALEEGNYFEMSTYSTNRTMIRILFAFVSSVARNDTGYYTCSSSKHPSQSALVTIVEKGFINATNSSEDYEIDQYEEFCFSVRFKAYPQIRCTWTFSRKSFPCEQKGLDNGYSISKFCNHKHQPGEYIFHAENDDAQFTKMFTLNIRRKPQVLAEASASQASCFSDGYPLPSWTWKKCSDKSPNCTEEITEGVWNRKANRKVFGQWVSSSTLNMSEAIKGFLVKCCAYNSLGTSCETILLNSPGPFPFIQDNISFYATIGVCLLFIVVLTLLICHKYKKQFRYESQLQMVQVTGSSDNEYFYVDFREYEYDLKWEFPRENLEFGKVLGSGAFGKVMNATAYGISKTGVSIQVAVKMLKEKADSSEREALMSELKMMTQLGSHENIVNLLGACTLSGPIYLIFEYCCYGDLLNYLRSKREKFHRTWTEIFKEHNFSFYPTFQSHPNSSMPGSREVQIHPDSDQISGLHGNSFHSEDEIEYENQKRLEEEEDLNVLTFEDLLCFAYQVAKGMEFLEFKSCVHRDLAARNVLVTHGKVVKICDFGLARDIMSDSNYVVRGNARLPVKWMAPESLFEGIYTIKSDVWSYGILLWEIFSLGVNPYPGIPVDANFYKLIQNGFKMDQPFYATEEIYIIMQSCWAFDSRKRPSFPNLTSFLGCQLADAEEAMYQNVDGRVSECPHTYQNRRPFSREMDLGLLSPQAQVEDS
Sequence of NTRK2 (human) (Q16620 whole entry, looked up): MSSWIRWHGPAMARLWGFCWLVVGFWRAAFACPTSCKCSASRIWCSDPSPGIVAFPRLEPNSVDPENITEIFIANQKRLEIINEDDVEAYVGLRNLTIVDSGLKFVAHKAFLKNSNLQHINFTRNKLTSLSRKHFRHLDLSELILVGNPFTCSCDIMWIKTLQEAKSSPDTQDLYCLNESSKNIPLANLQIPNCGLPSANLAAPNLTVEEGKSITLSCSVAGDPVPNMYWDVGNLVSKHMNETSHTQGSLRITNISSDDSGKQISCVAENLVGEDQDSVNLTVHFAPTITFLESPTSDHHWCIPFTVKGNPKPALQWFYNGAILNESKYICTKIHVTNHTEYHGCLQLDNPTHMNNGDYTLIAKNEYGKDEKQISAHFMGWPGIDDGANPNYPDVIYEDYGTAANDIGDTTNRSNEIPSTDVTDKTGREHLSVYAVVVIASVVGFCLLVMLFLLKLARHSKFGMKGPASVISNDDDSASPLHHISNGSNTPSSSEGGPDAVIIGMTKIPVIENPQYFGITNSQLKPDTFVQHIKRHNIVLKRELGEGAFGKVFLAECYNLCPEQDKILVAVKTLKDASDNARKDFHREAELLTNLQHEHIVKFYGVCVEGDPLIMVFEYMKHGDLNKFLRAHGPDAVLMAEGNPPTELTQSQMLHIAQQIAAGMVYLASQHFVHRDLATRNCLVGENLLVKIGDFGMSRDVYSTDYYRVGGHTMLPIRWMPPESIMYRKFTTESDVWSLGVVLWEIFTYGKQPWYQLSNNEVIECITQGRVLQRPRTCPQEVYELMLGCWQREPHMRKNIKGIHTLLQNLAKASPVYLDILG

Compound: CN[C@@H]1C[C@H]2O[C@@](C)([C@@H]1OC)n1c3ccccc3c3c4c(c5c6ccccc6n2c5c31)C(=O)NC4
residual activity (MTOR FKBP1A (human)): 78%
residual activity (CHEK1 (human)): 0%
residual activity (NTRK2 (human); compound 1.0 µM): 0%
residual activity (NTRK2 (human); compound 10.0 µM): 0%
residual activity (EPHA8 (human)): 26%
residual activity (NLK (human)): 26%
residual activity (NUAK1 (human); compound 1.0 µM): 0%
residual activity (NUAK1 (human); compound 10.0 µM): 0%
residual activity (MAPKAPK3 (human)): 43%
residual activity ([1]; compound 10.0 µM): 0%
residual activity (RPS6KA4 KD1 KD2 (human); compound 1.0 µM): 0%
residual activity (RPS6KA4 KD1 KD2 (human); compound 10.0 µM): 0%
residual activity (SRPK1 (human)): -4%
residual activity (STK24 (human)): 0%
residual activity (IRAK1 (human)): 0%
residual activity (MAPK3 (human)): 62%
residual activity (PRKACA (human)): 0%
residual activity (EPHB1 (human)): 0%
residual activity (CSNK1D (rat)): 52%
residual activity (STK4 (human)): 0%
residual activity ([2]; compound 10.0 µM): 0%
residual activity (CSNK1G1 (human)): 54%
residual activity (PAK7 (human)): 0%
residual activity (HIPK3 (human); compound 1.0 µM): 82%
residual activity (HIPK3 (human); compound 10.0 µM): 34%
residual activity (INSR (human)): 26%
residual activity (SRPK3 (human)): 51%
residual activity (PRKG1 (human)): 0%
residual activity (FYN (human)): 0%
residual activity (SRC (human)): 0%
residual activity (FLT3 (human); compound 1.0 µM): 0%
residual activity (FLT3 (human); compound 10.0 µM): 0%
residual activity [3]: 95%
residual activity (FER (human)): 0%
residual activity (PTK2B (human)): 0%
residual activity (WNK2 (human)): 37%
residual activity (MAP2K1 (human)): 0%
residual activity (PLK3 (human)): 43%
residual activity (PASK (human)): 0%
residual activity (TXK (human)): 24%
residual activity (STK17A (human)): 0%
residual activity (TLK2 (human); compound 1.0 µM): 0%
residual activity (TLK2 (human); compound 10.0 µM): 0%
residual activity (ULK3 (human)): 0%
residual activity (MELK (human)): 0%
residual activity (FGR (human)): 0%

residual activity (PIM1 (human)): 28%
residual activity (CDC42BPA (human)): 147%
residual activity (RPS6KA5 KD1 KD2 (human)): 100%
residual activity [4]: 17%
residual activity (KDR (human)): 24%
residual activity (AURKB (human)): -1%
residual activity (RPS6KA3 KD1 KD2 (human)): 17%
residual activity (EPHA1 (human)): 24%
residual activity (MARK2 (human)): 100%
residual activity (PAK4 (human)): 28%
residual activity (CAMK2G (human)): 21%
residual activity (TAOK1 (human)): 100%
residual activity (NTRK1 (human)): 21%
residual activity (TNK2 (human)): 24%
residual activity (EPHA3 (human)): 100%
Compound: O=C(Nc1cccc(Nc2nccc(Nc3cccc(C(F)(F)F)c3)n2)c1)C1CC1

Compound: COC(=O)[C@]1(O)C[C@@H]2O[C@@]1(C)n1c3ccccc3c3c4c(c5c6ccccc6n2c5c31)C(=O)NC4
residual activity ([1]; compound 10.0 µM): 0%
residual activity ([2]; compound 1.0 µM): -2%
residual activity ([2]; compound 10.0 µM): 0%
residual activity ([5]; compound 10.0 µM): -3%

residual activity ([1]; compound 1.0 µM): 64%
residual activity ([1]; compound 10.0 µM): 9%
residual activity ([6]; compound 1.0 µM): 55%
residual activity ([6]; compound 10.0 µM): 14%
residual activity ([2]; compound 1.0 µM): 36%
residual activity ([2]; compound 10.0 µM): 11%
residual activity ([5]; compound 1.0 µM): 50%
residual activity ([5]; compound 10.0 µM): 17%
residual activity ([7]; compound 1.0 µM): 60%
residual activity ([7]; compound 10.0 µM): 24%
Compound: O=C1c2ccccc2-c2n[nH]c3cccc1c23
